{"source": "patent US20240366524A1", "about": "“COMPOSITION AND METHOD FOR TREATING OR PREVENTING INFECTIONS” (CHITOGEL LIMITED, priority 2021, published 2024)", "key": {"C. acnes": {"system": "C. acnes", "assay": "Cellulose disk on nutrient agar survival test (Example 5)", "format": "cell-based", "conditions": "48 hours incubation, anaerobic; glycerol as 20% in water", "description": "The growth of C. acnes in the presence of glycerol, chitosan-dextran polymer (CS-DA), and a combination of glycerol and chitosan-dextran polymer (CS-DA-GLY) was investigated according to the following methodology: • Cellulose disks (approximately 1 cm in diameter) pre-soaked in C. acnes culture were placed on the surface of sterile nutrient agar plates. A test substance was placed on top of the soaked disks to allow contact with both the nutrient agar and a test substance. An untreated control agar plate contained only the soaked cellulose disk, with no test substance applied. The test substances were: (1) 20% glycerol in water; (2) a composition comprising aldehyde-derivatised dextran polymer cross linked with N-succinyl chitosan polymer, an aqueous phosphate buffer and approximately 20% v/v glycerol, prepared according to the description above in Example 2 (herein referred to as CS-DA-GLY); and (3) a composition comprising aldehyde-derivatised dextran polymer cross linked with N-succinyl chitosan polymer, and an aqueous phosphate buffer (herein referred to as CS-DA). That is, the composition of test substances (2) and (3) differ only in the presence and absence of glycerol. […] Following incubation for 112 hours 5 minutes at conditions appropriate for the microorganism, the surviving test microorganisms were recorded for each test and control plate."}, "C. propinquum": {"system": "C. propinquum", "assay": "Planktonic growth of nasal clinical isolates (OD 595 nm, 24 h)", "format": "cell-based, Corynebacterium propinquum", "protocol": "(§1) The effect of glycerol on bacterial growth was determined by analysis of nasal bacterial isolates from subjects participating in the trial described in Example 3. The bacterial isolates were cultured for 24 hours in Nutrient Broth (NB) and Brain-Heart Infusion (BHI) which further contained glycerol in an amount of either 20% v/v, or 40% v/v, or 0% glycerol (control).\n(§2) A total of 22 nasal clinical isolates including C. accolens (n=4), C. propinquum(n=3), C. pseudodiptheriticum (n=3), S. epidermidis (n=4), S. aureus (n=4) and P. aeruginosa (n=4) were used in this experiment. Prior to starting experiments, isolates were grown in tryptic soya agar (TSA) and incubated at 37° C. under aerobic conditions for 24 hours, except for C. accolens which was incubated for 48 hours.\nGlycerol at 20% was prepared by dilution in nutrient broth (NB) media. Glycerol treatments at 20% concentrations were prepared in a 96-well microtitration plate containing 50 μL NB. A single colony of bacterial isolates such as C. accolens, C. propinquum, C. pseudodiptheriticum, S. epidermidis, S. aureus and P. aeruginosa from overnight cultures was suspended with 0.9% saline (aqueous NaCl) to McFarland standard of 0.5 and diluted 1:100 in NB growth media. […] After incubation, the planktonic bacterial growth was determined by measuring the optical density (OD) at 595 nm using microplate absorbance reader (iMark™, BIO-RAD). […]"}, "[1]": {"system": "commensal and pathogenic bacterial isolates", "assay": "Planktonic growth of nasal clinical isolates (OD 595 nm, 24 h), all isolates", "format": "cell-based", "protocol": "as §1, §2\n(§3) Glycerol at 20% was prepared by dilution in nutrient broth (NB) media. Glycerol treatments at 20% concentrations were prepared in a 96-well microtitration plate containing 50 μL NB. A single colony of bacterial isolates such as C. accolens, C. propinquum, C. pseudodiptheriticum, S. epidermidis, S. aureus and P. aeruginosa from overnight cultures was suspended with 0.9% saline (aqueous NaCl) to McFarland standard of 0.5 and diluted 1:100 in NB growth media. Next, 50 μL of the diluted bacterial suspension was then added to the treatments in each well and incubated aerobically for 24 hours at 37° C. A negative control (media without bacteria and treatment) and untreated growth control (media with bacteria but no treatment) were used in this assay. After incubation, the planktonic bacterial growth was determined by measuring the optical density (OD) at 595 nm using microplate absorbance reader (iMark™, BIO-RAD). For each bacterial strain, six replicate experiments were performed to assess bacterial growth."}, "P. aeruginosa [2]": {"system": "P. aeruginosa", "assay": "Cellulose disk on nutrient agar survival test (Example 6)", "format": "cell-based", "conditions": "48 h aerobic", "description": "The growth of S. aureus and P. aeruginosa in the presence of glycerol, chitosan-dextran polymer, or a combination of glycerol and chitosan-dextran polymer, was investigated according to the following methodology: • (A) Cellulose disks (approximately 1 cm in diameter) pre-soaked in S. aureus or P. aeruginosa cultures were placed on the surface of sterile nutrient agar plates. A test substance was placed on top of the soaked disks to allow contact with both the nutrient agar and a test substance. An untreated control agar plate contained only the soaked cellulose disk, with no test substance applied. The test substances were as described in Example 5, namely: (1) 20% v/v glycerol in water; (2) CS-DA-GLY; and (3) CS-DA. All test and control cellulose disk plates were incubated for 48±1 hours at conditions appropriate for each microorganism (e.g. aerobic conditions for S. aureus and P. aeruginosa, and anaerobic conditions for C. acnes). […] Following incubation for 72 hours 40 minutes at conditions appropriate for each microorganism, the surviving test microorganisms were recorded for each test and control plate. • (B) The same methodology as (A) was performed, but the cellulose disk plates additionally included the supernatant of a C. acnes culture that was grown on a substrate comprising 20% glycerol. […]"}, "S. aureus [3]": {"system": "S. aureus", "assay": "Planktonic growth of nasal clinical isolates (OD 595 nm, 24 h)", "format": "cell-based", "protocol": "as §1, §2, §3"}, "P. aeruginosa [4]": {"system": "P. aeruginosa", "assay": "Planktonic growth of nasal clinical isolates (OD 595 nm, 24 h)", "format": "cell-based", "protocol": "as §1, §2, §3"}, "C. accolens": {"system": "C. accolens", "assay": "Planktonic growth of nasal clinical isolates (OD 595 nm, 24 h)", "format": "cell-based", "conditions": "NB and BHI", "protocol": "as §1, §2, §3"}, "S. epidermidis": {"system": "S. epidermidis", "assay": "Planktonic growth of nasal clinical isolates (OD 595 nm, 24 h)", "format": "cell-based, Staphylococcus epidermidis", "protocol": "as §1, §2, §3"}, "C. pseudodiphtheriticum": {"system": "C. pseudodiphtheriticum", "assay": "Planktonic growth of nasal clinical isolates (OD 595 nm, 24 h)", "format": "cell-based, Corynebacterium pseudodiphtheriticum", "protocol": "as §1, §2, §3"}, "S. aureus [5]": {"system": "S. aureus", "assay": "Cellulose disk on nutrient agar survival test (Example 6)", "format": "cell-based", "conditions": "48 h aerobic", "description": "The growth of S. aureus and P. aeruginosa in the presence of glycerol, chitosan-dextran polymer, or a combination of glycerol and chitosan-dextran polymer, was investigated according to the following methodology: • (A) Cellulose disks (approximately 1 cm in diameter) pre-soaked in S. aureus or P. aeruginosa cultures were placed on the surface of sterile nutrient agar plates. A test substance was placed on top of the soaked disks to allow contact with both the nutrient agar and a test substance. An untreated control agar plate contained only the soaked cellulose disk, with no test substance applied. The test substances were as described in Example 5, namely: (1) 20% v/v glycerol in water; (2) CS-DA-GLY; and (3) CS-DA. All test and control cellulose disk plates were incubated for 48±1 hours at conditions appropriate for each microorganism (e.g. aerobic conditions for S. aureus and P. aeruginosa, and anaerobic conditions for C. acnes). Following incubation, the cellulose disks were each aseptically removed from the agar surface and the microorganism contents of the cellulose disks were individually extracted using sterile phosphate-buffered saline solution. Each of the resulting microorganism suspensions were serially diluted 1:10 in sterile phosphate-buffered saline solution and 1.000 mL of the appropriate dilutions were plated in singlet to sterile growth media appropriate for the target test microorganism. Following incubation for 72 hours 40 minutes at conditions appropriate for each microorganism, the surviving test microorganisms were recorded for each test and control plate. • (B) The same methodology as (A) was performed, but the cellulose disk plates additionally included the supernatant of a C. acnes culture that was grown on a substrate comprising 20% glycerol. […]"}, "[6]": {"conditions": "20% v/v glycerol, media (NB and BHI)"}, "[7]": {"conditions": "test set A, no C. acnes supernatant, glycerol as 20% v/v in water"}, "[8]": {"conditions": "20% glycerol, Nutrient Broth, 24 hours"}}, "note": "“Also recorded” adds a separate entry of the source."}
{"smiles": "OCC(O)CO", "note": "[glycerol]", "values": [{"measurement": "growth (percent survival) of C. acnes compared to untreated control", "setting": "C. acnes", "value": "supported"}, {"measurement": "growth of C. propinquum compared to control", "setting": "C. propinquum; [6]", "value": "inhibited"}, {"measurement": "growth of C. propinquum", "setting": "C. propinquum; 40% v/v glycerol, NB and BHI", "value": "significant inhibitory effect"}, {"measurement": "growth of commensal and pathogenic bacterial isolates", "setting": "[1]; 20% glycerol, BHI broth", "value": "significantly inhibit"}, {"measurement": "growth of commensal and pathogenic bacterial isolates", "setting": "[1]; 40% glycerol, BHI broth", "value": "significantly inhibit"}, {"measurement": "growth of commensal and pathogenic bacterial isolates", "setting": "[1]; 40% glycerol, NB", "value": "significantly inhibit"}, {"measurement": "growth of P. aeruginosa compared to control", "setting": "P. aeruginosa [2]; [7]", "value": "decrease"}, {"measurement": "growth of P. aeruginosa compared to control", "setting": "P. aeruginosa [2]; test set C, with C. acnes supernatant (grown in the presence of glycerol)", "value": "much more substantial decrease; also recorded: reduction"}, {"measurement": "planktonic growth of S. aureus vs untreated growth control", "setting": "S. aureus [3]; [8]", "value": "significantly reduced; also recorded: significantly inhibit"}, {"measurement": "growth of S. aureus compared to control", "setting": "S. aureus [3]; [6]", "value": "inhibited"}, {"measurement": "growth of S. aureus", "setting": "S. aureus [3]; 40% v/v glycerol, NB and BHI", "value": "significant inhibitory effect"}, {"measurement": "planktonic growth of P. aeruginosa vs untreated growth control", "setting": "P. aeruginosa [4]; [8]", "value": "significantly inhibit; also recorded: significantly reduced"}, {"measurement": "growth of P. aeruginosa compared to control", "setting": "P. aeruginosa [4]; [6]", "value": "inhibited"}, {"measurement": "growth of P. aeruginosa", "setting": "P. aeruginosa [4]; 40% v/v glycerol, NB and BHI", "value": "significant inhibitory effect"}, {"measurement": "growth of C. accolens compared to control", "setting": "C. accolens; 20% v/v glycerol", "value": "either unaffected or promoted"}, {"measurement": "growth of C. accolens", "setting": "C. accolens; 40% v/v glycerol", "value": "significant inhibitory effect"}, {"measurement": "planktonic growth of S. epidermidis vs untreated growth control", "setting": "S. epidermidis; [8]", "value": "significantly inhibit; also recorded: significantly reduced"}, {"measurement": "growth of S. epidermidis compared to control", "setting": "S. epidermidis; [6]", "value": "inhibited"}, {"measurement": "growth of S. epidermidis", "setting": "S. epidermidis; 40% v/v glycerol, NB and BHI", "value": "significant inhibitory effect"}, {"measurement": "planktonic growth of C. pseudodiphtheriticum vs untreated growth control", "setting": "C. pseudodiphtheriticum; [8]", "value": "significantly inhibit; also recorded: significantly reduced"}, {"measurement": "growth of C. pseudodiphtheriticum compared to control", "setting": "C. pseudodiphtheriticum; [6]", "value": "inhibited"}, {"measurement": "growth of C. pseudodiphtheriticum", "setting": "C. pseudodiphtheriticum; 40% v/v glycerol, NB and BHI", "value": "significant inhibitory effect"}, {"measurement": "growth of S. aureus compared to control", "setting": "S. aureus [5]; [7]", "value": "decrease"}, {"measurement": "growth of S. aureus compared to control", "setting": "S. aureus [5]; test set B, comprising C. acnes supernatant (method b251: culture grown on 20% glycerol substrate)", "value": "decrease"}, {"measurement": "growth of S. aureus compared to control", "setting": "S. aureus [5]; test set C, comprising C. acnes supernatant (method b251: glycerol-free substrate; b254: grown in the presence of glycerol)", "value": "decrease"}]}
